33 compounds from US20090111801A1, “SUBSTITUTED PYRAZINONE DERIVATIVES FOR USE AS A MEDICINE” (Janssen Pharmaceutica N.V., priority 2006, published 2009) can be followed below.

The target in one test is T1, hα2C receptor (Homo sapiens, UniProt P18825).
T1 construct: expressed in transfected cells; host or cells: CHO cells, stably transfected; membrane preparation
T1 sequence (P18825 1-462): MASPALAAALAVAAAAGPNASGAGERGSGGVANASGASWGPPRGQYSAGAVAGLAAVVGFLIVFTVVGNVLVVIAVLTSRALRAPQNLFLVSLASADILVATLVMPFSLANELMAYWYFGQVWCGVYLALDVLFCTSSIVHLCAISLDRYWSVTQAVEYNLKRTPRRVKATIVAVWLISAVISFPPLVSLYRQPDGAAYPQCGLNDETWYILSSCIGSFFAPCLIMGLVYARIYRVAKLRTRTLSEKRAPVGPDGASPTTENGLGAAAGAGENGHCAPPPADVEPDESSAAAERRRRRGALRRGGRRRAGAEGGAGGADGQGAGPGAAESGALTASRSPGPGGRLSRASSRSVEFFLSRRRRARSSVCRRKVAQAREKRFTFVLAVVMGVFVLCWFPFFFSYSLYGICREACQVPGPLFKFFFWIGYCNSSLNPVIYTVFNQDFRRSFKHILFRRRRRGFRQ
As to the kind of experiment: Radioligand binding experiment for α2C-adrenoceptor ([3H]raulwolscine, CHO cell membranes). The settings on record: [3H]raulwolscine binding; for IC50: read-out: h-α2C pIC50 (converted).

Another test deals with T2, 5HT-Transporter (Homo sapiens, UniProt P31645).
T2 construct: Human platelet membranes (Oceanix Biosciences Corporation, Hanover, Md., USA) were thawed; tissue Oceanix Biosciences Corporation, Hanover, Md., USA; host or cells: human platelet membranes
T2 sequence (P31645 whole entry): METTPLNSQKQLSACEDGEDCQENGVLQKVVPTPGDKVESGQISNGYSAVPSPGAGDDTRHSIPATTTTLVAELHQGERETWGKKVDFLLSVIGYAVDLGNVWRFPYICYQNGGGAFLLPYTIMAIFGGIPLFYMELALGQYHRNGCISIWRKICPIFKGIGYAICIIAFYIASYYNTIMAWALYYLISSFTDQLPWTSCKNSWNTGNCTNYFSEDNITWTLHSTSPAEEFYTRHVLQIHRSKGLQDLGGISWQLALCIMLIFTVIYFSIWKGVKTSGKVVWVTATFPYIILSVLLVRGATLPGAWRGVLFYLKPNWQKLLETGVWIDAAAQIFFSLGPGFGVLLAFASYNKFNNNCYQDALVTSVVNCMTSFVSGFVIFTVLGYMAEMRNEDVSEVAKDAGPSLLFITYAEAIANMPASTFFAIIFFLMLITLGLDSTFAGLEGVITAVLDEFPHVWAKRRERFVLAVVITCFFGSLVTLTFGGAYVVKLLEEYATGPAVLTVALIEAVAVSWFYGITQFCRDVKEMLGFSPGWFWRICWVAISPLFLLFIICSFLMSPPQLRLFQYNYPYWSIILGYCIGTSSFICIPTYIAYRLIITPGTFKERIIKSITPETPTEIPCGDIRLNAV
Put plainly: Binding experiment for the 5HT-transporter ([3H]paroxetine, human platelet membranes). The settings on record: [3H]paroxetine 0.5 nM; for IC50: read-out: h-5HTT pIC50 (converted). Summed up:
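Filter-bound radioactivity from human platelet membranes incubated with [3H]paroxetine and test compound (buffer Tris-HCl 50 mM, 120 mM NaCl, 5 mM KCl) was counted.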

For the next test, the target named is T3, hα2A receptor (Homo sapiens, UniProt P08913).
T3 construct: expressed in transfected cells; host or cells: CHO cells, stably transfected; membrane preparation
T3 sequence (P08913 1-465): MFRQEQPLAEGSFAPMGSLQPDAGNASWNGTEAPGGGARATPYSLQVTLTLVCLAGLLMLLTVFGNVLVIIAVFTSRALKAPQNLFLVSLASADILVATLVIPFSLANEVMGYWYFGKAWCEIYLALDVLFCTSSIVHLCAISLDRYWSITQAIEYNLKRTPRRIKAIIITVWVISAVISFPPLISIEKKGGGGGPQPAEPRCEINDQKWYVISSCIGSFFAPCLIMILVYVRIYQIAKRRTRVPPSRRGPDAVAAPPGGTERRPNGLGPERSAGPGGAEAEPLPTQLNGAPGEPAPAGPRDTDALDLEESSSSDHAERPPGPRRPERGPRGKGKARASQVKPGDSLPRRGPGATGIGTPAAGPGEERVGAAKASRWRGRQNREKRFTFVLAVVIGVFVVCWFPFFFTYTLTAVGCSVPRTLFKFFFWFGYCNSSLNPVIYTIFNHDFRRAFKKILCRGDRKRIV
Put plainly: Radioligand binding experiment for α2A-adrenoceptor ([3H]raulwolscine, CHO cell membranes). The settings on record: [3H]raulwolscine binding; for IC50: read-out: h-α2A pIC50 (converted).

Turning to `C/C(=C\c1ccccc1)CN1CCC(Nc2nccn(CC(=O)N(CCO)Cc3ccccc3)c2=O)CC1` [1-67], the IC50 is 0.00316 µM on hα2C receptor, 1 µM on 5HT-Transporter and 0.1 µM at hα2A receptor.
`C/C(=C\c1ccccc1)CN1CCC(Nc2nccn(CC(=O)NCC(c3ccccc3)c3ccccc3)c2=O)CC1` [1-68]: the IC50 on hα2C receptor is 0.0126 µM; at 5HT-Transporter, 0.794 µM; at hα2A receptor, 0.158 µM.
In the case of `C/C(=C\c1ccccc1)CN1CCC(Nc2nccn(CC(=O)N(Cc3ccccc3)c3ccccc3)c2=O)CC1` [1-69], the IC50 on hα2C receptor is 0.0398 µM; on 5HT-Transporter it was 0.794 µM; on hα2A receptor, 0.158 µM.
Turning to `C/C(=C\c1ccccc1)CN1CCC(Nc2nccn(-c3cccc(N(Cc4ccccc4)c4ccccc4)c3)c2=O)CC1` [1-70], the results for the IC50 at hα2C receptor, on 5HT-Transporter and at hα2A receptor were 0.02 µM, 0.158 µM and 0.0316 µM, respectively.
For the compound `C/C(=C\c1ccccc1)CN1CCC(Nc2nccn(CCCN(Cc3ccccc3)Cc3ccccc3)c2=O)CC1` [1-71], the IC50 on hα2C receptor is 0.00501 µM; on 5HT-Transporter, 0.398 µM; on hα2A receptor it was 0.1 µM.
The matching figures for `C/C(=C\c1ccccc1)CN1CCC(Nc2nccn(CCCNC(=O)c3ccccc3)c2=O)CC1` [1-72]: 0.00316 µM, 1.58 µM and 0.126 µM.
The corresponding values for `C/C(=C\c1ccccc1)CN1CCC(Nc2nccn(Cc3ccc(CNC(=O)c4ccccc4)cc3)c2=O)CC1` [1-73] are 0.0316 µM, 0.316 µM and 0.158 µM.
On to `C/C(=C\c1ccccc1)CN1CCC(Nc2nccn(CCCN(C)C(=O)c3ccccc3)c2=O)CC1` [1-74], for which the IC50 at hα2C receptor was 0.01 µM; on 5HT-Transporter, 3.16 µM; at hα2A receptor it was 0.251 µM.
Turning to `C/C(=C\c1ccccc1)CN1CCC(Nc2nccn(Cc3ccc(CNC(=O)c4ccc(C#N)cc4)cc3)c2=O)CC1` [1-75], the figures for the IC50 on hα2C receptor, on 5HT-Transporter and at hα2A receptor were 0.0501 µM, 0.2 µM and 0.126 µM, respectively.
Consider `C/C(=C\c1ccccc1)CN1CCC(Nc2nccn(-c3cccc(NC(=O)c4cccc(F)c4)c3)c2=O)CC1` [1-76], for which the IC50 was 0.0316 µM on hα2C receptor, 0.126 µM at 5HT-Transporter and 0.02 µM on hα2A receptor.
`C/C(=C\c1ccccc1)CN1CCC(Nc2nccn(-c3ccc(NC(=O)c4cccc(F)c4)cc3)c2=O)CC1` [1-77]: the IC50 is 0.0158 µM at hα2C receptor, 0.251 µM at 5HT-Transporter and 0.126 µM on hα2A receptor.
For `C/C(=C\c1ccccc1)CN1CCC(Nc2nccn(-c3ccc(CNC(=O)c4ccc(F)cc4)cc3)c2=O)CC1` [1-78], the “h-α2C pIC50” value at hα2C receptor was determined as 8.3. Further, the “h-5HTT pIC50” value at 5HT-Transporter was 7.1. For the same compound, on hα2A receptor, the “h-α2A pIC50” value stood at 6.7.
Regarding `C/C(=C\c1ccccc1)CN1CCC(Nc2nccn(CCCN(C)C(=O)c3ccc(F)cc3)c2=O)CC1` [1-79], the IC50 on hα2C receptor is 0.0398 µM; on 5HT-Transporter, greater than 10 µM; on hα2A receptor it was 2 µM.
The matching figures for `C/C(=C\c1ccccc1)CN1CCC(Nc2nccn(-c3ccc(NC(=O)Cc4ccccc4)cc3)c2=O)CC1` [1-81]: 0.0251 µM, 0.2 µM and 0.2 µM.
The corresponding values for `C/C(=C\c1ccccc1)CN1CCC(Nc2nccn(Cc3ccc(CNC(=O)Cc4ccccc4)cc3)c2=O)CC1` [1-82] are 0.0251 µM, 0.251 µM and 0.0794 µM.
`C/C(=C\c1ccccc1)CN1CCC(Nc2nccn(CCCN(C)CC(=O)c3ccccc3)c2=O)CC1` [1-84]: the values for the IC50 at hα2C receptor, on 5HT-Transporter and on hα2A receptor were 0.01 µM, 1.26 µM and 0.1 µM, respectively.
The corresponding values for `CCCC(=O)N(CCCn1ccnc(NC2CCN(C/C(C)=C/c3ccccc3)CC2)c1=O)Cc1ccccc1` [1-85] are 0.01 µM, 1.26 µM and 0.158 µM.
As to `C/C(=C\c1ccccc1)CN1CCC(Nc2nccn(CCCN(Cc3ccccc3)C(=O)CC3CCCC3)c2=O)CC1` [1-86], the IC50 was 0.0158 µM on hα2C receptor, 1 µM at 5HT-Transporter and 0.158 µM on hα2A receptor.
As for `C/C(=C\c1ccccc1)CN1CCC(Nc2nccn(CCCN(Cc3ccccc3)C(=O)c3ccccc3)c2=O)CC1` [1-87], the IC50 is 0.0126 µM on hα2C receptor, 1.58 µM on 5HT-Transporter and 0.2 µM at hα2A receptor.
On to `C/C(=C\c1ccccc1)CN1CCC(Nc2nccn(CCCN(C(=O)Cc3ccccc3)c3ccccc3)c2=O)CC1` [1-88], for which the IC50 on hα2C receptor is 0.0126 µM; at 5HT-Transporter, 0.631 µM; on hα2A receptor, 0.126 µM.
The matching figures for `C/C(=C\c1ccccc1)CN1CCC(Nc2nccn(CCCN(Cc3ccccc3)C(=O)Cc3ccccc3)c2=O)CC1` [1-89]: 0.0126 µM, 0.794 µM and 0.2 µM.
With `C/C(=C\c1ccccc1)CN1CCC(Nc2nccn(CCCN(CC(=O)c3ccccc3)Cc3ccccc3)c2=O)CC1` [1-90], the IC50 was 0.002 µM on hα2C receptor, 0.631 µM on 5HT-Transporter and 0.126 µM at hα2A receptor.
`C/C(=C\c1ccccc1)CN1CCC(Nc2nccn(-c3ccc(CNC(=O)OC(C)(C)C)cc3)c2=O)CC1` [1-91]: the “h-α2C pIC50” value at hα2C receptor is on record as 7.7. On 5HT-Transporter, the “h-5HTT pIC50” value is 6.1. Also, the “h-α2A pIC50” value on hα2A receptor was determined as 6.5.
As for `C/C(=C\c1ccccc1)CN1CCC(Nc2nccn(CCCN(C)C(=O)OC(C)(C)C)c2=O)CC1` [1-92], the IC50 is 0.00631 µM at hα2C receptor, 1.26 µM at 5HT-Transporter and 0.1 µM on hα2A receptor.
Take `COCC(=O)NCc1ccc(Cn2ccnc(NC3CCN(C/C(C)=C/c4ccccc4)CC3)c2=O)cc1` [1-93]: the IC50 is 0.0501 µM at hα2C receptor, 1.26 µM on 5HT-Transporter and 0.158 µM at hα2A receptor.
Regarding `COC(=O)CCNC(=O)Cn1ccnc(NC2CCN(C/C(C)=C/c3ccccc3)CC2)c1=O` [1-94], the IC50 was 0.00398 µM at hα2C receptor, 2.51 µM at 5HT-Transporter and 0.158 µM on hα2A receptor.
With `COC(=O)CCNCc1cccc(-n2ccnc(NC3CCN(C/C(C)=C/c4ccccc4)CC3)c2=O)c1` [1-95], the “h-α2C pIC50” value at hα2C receptor stood at 8.9. In addition, the “h-5HTT pIC50” value on 5HT-Transporter was found to be 5.9. The “h-α2A pIC50” value on hα2A receptor is listed as 7.6.
The matching figures for `COC(=O)CCNCc1ccc(-n2ccnc(NC3CCN(C/C(C)=C/c4ccccc4)CC3)c2=O)cc1` [1-96]: 8.6, 6.0 and 7.1.
With `COC(=O)CN(C)C(=O)Cn1ccnc(NC2CCN(C/C(C)=C/c3ccccc3)CC2)c1=O` [1-97], the IC50 on hα2C receptor was 0.01 µM; at 5HT-Transporter, 2.51 µM; on hα2A receptor, 0.126 µM.
As for `COC(=O)CN(C)Cc1cccc(-n2ccnc(NC3CCN(C/C(C)=C/c4ccccc4)CC3)c2=O)c1` [1-98], the “h-α2C pIC50” value at hα2C receptor is reported as 8.9. Moreover, the “h-5HTT pIC50” value on 5HT-Transporter worked out at 6.0. Moreover, the “h-α2A pIC50” value on hα2A receptor is 7.5.
For `COC(=O)CN(C)Cc1ccc(-n2ccnc(NC3CCN(C/C(C)=C/c4ccccc4)CC3)c2=O)cc1` [1-99], the figures for the IC50 at hα2C receptor, on 5HT-Transporter and on hα2A receptor were 0.00501 µM, 1 µM and 0.0794 µM, respectively.
As to `COC(=O)CC(=O)NCc1ccc(Cn2ccnc(NC3CCN(C/C(C)=C/c4ccccc4)CC3)c2=O)cc1` [1-100], the IC50 is 0.0251 µM on hα2C receptor, 1 µM on 5HT-Transporter and 0.126 µM on hα2A receptor.
Take `CCOC(=O)CN(Cc1ccccc1)C(=O)Cn1ccnc(NC2CCN(C/C(C)=C/c3ccccc3)CC2)c1=O` [1-101]: the IC50 was 0.00631 µM on hα2C receptor, 1.58 µM on 5HT-Transporter and 0.126 µM at hα2A receptor.
